Data: the NIST ThermoML archive (doi:10.1021/je301030z)
± gives the expanded uncertainty stated by the source.

Assay: mn = molality of the nth substance listed, in mol/kg
Conditions: 101 kPa, Liquid, Vibrating tube method

NCCO [2-aminoethan-1-ol] + O
mass density [kg/m3]
Conditions	293.16 K	297.14 K	301.14 K	305.14 K	309.14 K	313.14 K	317.14 K	320.14 K
m1 = 2.8	1004.53 ± 0.11	1003.31 ± 0.11	1001.95 ± 0.11	1000.48 ± 0.11	998.89 ± 0.11	997.21 ± 0.11	995.42 ± 0.11	994.02 ± 0.11
m1 = 7.01	1013.19 ± 0.12	1011.51 ± 0.12	1009.75 ± 0.12	1007.89 ± 0.12	1005.96 ± 0.12	1003.95 ± 0.12	1001.85 ± 0.12	1000.22 ± 0.12
